Source: article PMC10818259, “Antioxidant and Inhibitory Activities of Filipendula glaberrima Leaf Constituents against HMG-CoA Reductase and Macrophage Foam Cell Formation” (Molecules, 2024)

Experiments:
[1] = DPPH radical scavenging assay; settings: read-out: Antioxidant Activity (IC50) DPPH, isolates and standards, mean ± SD, n = 3
Experimental: As positive controls, ascorbic acid, quercetin, resveratrol, and Trolox were employed. Triplicate measurements were performed for each sample, and the mean values were determined.
DPPH radical scavenging assay.
The extracts and isolates were dissolved in dimethyl sulfoxide (DMSO) at concentrations
ranging from 0.1 to 10 mg/mL and 0.1 to 10 mM, respectively. Subsequently, they were
combined with an ethanol solution of DPPH (100 μM). The DPPH solution (190 μL per well)
and the samples (10 μL per well) were incubated in a 96-well microplate at 37 °C for 30 minutes
under dark conditions. The absorbance at 515 nm was quantified using a microplate reader, and
the percentage inhibition (%) of each sample was calculated by comparing it with the control
group treated with DMSO. Linear regression analysis was employed to estimate the IC50 values,
which indicated the concentration of test samples required to inhibit 50% of the free radicals.

[2] = target: T1, HMG-CoA reductase (HMGR) (Homo sapiens, UniProt P04035); test: HMG-CoA reductase (HMGR) inhibition assay, NADPH oxidation at 340 nm; format: biochemical
T1 sequence (P04035 426-888 limits assumed): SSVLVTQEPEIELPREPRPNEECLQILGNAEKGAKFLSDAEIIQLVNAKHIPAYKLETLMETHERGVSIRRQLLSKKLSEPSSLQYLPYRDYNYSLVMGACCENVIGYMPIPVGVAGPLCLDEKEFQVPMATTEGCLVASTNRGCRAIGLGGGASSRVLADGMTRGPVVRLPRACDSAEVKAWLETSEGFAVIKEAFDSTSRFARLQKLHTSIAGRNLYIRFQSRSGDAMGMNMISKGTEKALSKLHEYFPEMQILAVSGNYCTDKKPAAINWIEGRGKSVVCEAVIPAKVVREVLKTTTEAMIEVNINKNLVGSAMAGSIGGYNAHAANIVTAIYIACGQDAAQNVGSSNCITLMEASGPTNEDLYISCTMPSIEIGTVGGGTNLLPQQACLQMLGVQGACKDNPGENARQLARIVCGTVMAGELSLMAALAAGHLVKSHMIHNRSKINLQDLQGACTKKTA
Experimental: The HMGR activity assay was optimized using a 96-well microplate reader to measure nicotinamide adenine dinucleotide phosphate (NADPH) oxidation during enzyme turnover. Each well was loaded with a mixture comprising 89 μL of 50 mM sodium phosphate buffer (pH 6.8), 0.8 mM NADPH, and 2 μg of the enzyme (2–8 units/mg). To initiate the reaction, 1 μL of the test sample and 10 μL of 0.8 mM HMG-CoA were introduced to the well. […] The activity of HMGR was assessed by monitoring the reduction in NADPH absorbance at 340 nm for a duration of 900 s at 37 °C.

[3] = Superoxide anion radical scavenging assay (xanthine/xanthine oxidase, NBT); format: biochemical; settings: isolates and standards; mean ± SD, n = 3; read-out: Antioxidant Activity (IC50) Superoxide Anion Radical
Excerpt: Superoxide anion radical scavenging assay.

[4] = test system: lipid peroxidation in liver homogenate; test: Inhibitory effect on lipid peroxidation (LPO) in liver homogenate, TBARS; format: biochemical, Sprague Dawley rats; settings: isolates and standards; rat liver homogenate; mean ± SD, n = 3; read-out: Antioxidant Activity (IC50) LPO
Excerpt: Assay for inhibitory effect of lipid peroxidation. Male Sprague Dawley rats were used in the […]
Technology (approval number: […]-2018-081). Experimental animals were […]
anesthetized with isoflurane and dissected. A 0.15 M ice-cold KCl solution was perfused through the liver portal vein to remove blood from the liver and extract the liver. The liver was homogenized in KCl solution at 10 times the liver’s weight , and the protein concentration was quantified by the Bradford protein method using bovine serum albumin as a standard. A lipid peroxidation test was performed using a slightly modified version of the method described.
Reaction mixtures consisted of 300 μL of liver ho mogenate (11 mg protein/mL) , 300 μL of 50 mM Tris -HCl buffer (pH 7.5) containing 10 μM FeSO 4, and 0.4 mM ascorbic acid. Test samples (10 μL) or DMSO blanks were added to the reaction mixture and incubated at 37 °C for 30 min. After incubation, lipid peroxidation was measured by forming thiobarbituric acid reactive substance s. The mixture was subjected to a reaction at 90 °C for 30 min, followed by cooling and subsequent centrifugation (5,000 × g) for 10 min. The absorbance of the resulting supernatant was d etermined at 535 nm, and the percentage of lipid peroxidation inhibition by the sample was computed. DMSO was utilized as a control instead of the test drug, and the […]

[5] = test system: THP-1 macrophage foam cells; test: ox-LDL-induced macrophage foam cell formation, Oil Red O staining; format: cell-based; settings: Homo sapiens, 50 μg/mL ox-LDL, 16 h, positive control, read-out: Inhibitory effect on foam cell formation
Experimental: This approach aimed to examine the impact of these substances on lipid accumulation and the formation of foam cells. First, we observed the effects of different concentrations (20, 40, and 60 μg/mL) of the solvent extracts on the THP-1 macrophage activity. […] As a result, we selected and optimized the concentration of 50 μg/mL for the solvent extract to be used in the subsequent experiments. […] Following the extraction of the intracellular dye using isopropanol, a quantitative assessment of the intracellular lipid content was conducted.
THP-1 cells (ATCC, TIB-202, Manassas, VA, USA) were obtained and maintained in RPMI-1640 medium (Cytiva, UT, USA), supplemented with 10% fetal bovine serum (FBS; Hyclone, Cytiva, Logan, UT, USA), penicillin (100 U/mL), streptomycin (100 μg/mL), and 2-mercaptoethanol (Sigma-Aldrich, Saint Louis, MO, USA) at a final concentration of 0.05 mM. The cells were cultured at 37 °C in a 5% CO2 atmosphere with humidity. The THP-1 cells in the suspension were treated with 50 nM phorbol-12-myristate-13-acetate (Sigma-Aldrich, USA) for 48 h. […]
THP-1 cells were seeded in 24-well plates at a density of 5 × 10^5 cells/mL and pretreated as described above. […] The absorbance at 450 nm was measured using a multi-plate reader (Synergy Neo, BioTek Instruments, Inc., Winooski, VT, USA) and statistically processed.

Compound: COC(=O)c1cc(O)c(O)c(O)c1Oc1cc2c(c(O)c1O)-c1c(cc(O)c(O)c1O)C(=O)OC1C(COC2=O)OC(O)C(OC(=O)c2cc(O)c(O)c(O)c2)C1OC(=O)c1cc(O)c(O)c(O)c1 (stereo not shown) [Compound 1, Rugosin B methyl ester]
- IC50 [1]: 3.62 ± 0.57 µM
- IC50 [2]: 1.46 ± 0.22 µM
- IC50 [3]: 4.29 ± 0.23 µM
- IC50 [4]: 3.54 ± 0.29 µM

Compound: O=C(OC1C(O)OC2COC(=O)c3cc(Oc4c(C(=O)O)cc(O)c(O)c4O)c(O)c(O)c3-c3c(cc(O)c(O)c3O)C(=O)OC2C1OC(=O)c1cc(O)c(O)c(O)c1)c1cc(O)c(O)c(O)c1 (stereo not shown) [Compound 2, rugosin B]
- IC50 [1]: 3 ± 0.08 µM
- IC50 [2]: 17.7 ± 0.04 µM
- IC50 [3]: 5.53 ± 0.21 µM
- IC50 [4]: 6.02 ± 0.14 µM

Compound: COC(=O)c1cc(O)c(O)c(O)c1Oc1cc2c(c(O)c1O)-c1c(cc(O)c(O)c1O)C(=O)O[C@H]1[C@H](OC(=O)c3cc(O)c(O)c(O)c3)[C@@H](OC(=O)c3cc(O)c(O)c(O)c3)[C@H](OC(=O)c3cc(O)c(O)c(O)c3)O[C@@H]1COC2=O [Compound 3, rugosin A methyl ester]
- IC50 [1]: 4.27 ± 0.45 µM
- IC50 [2]: 8.4 ± 0.84 µM
- IC50 [3]: 4.25 ± 0.11 µM
- IC50 [4]: 3.83 ± 0.52 µM

Compound: O=C(O[C@@H]1O[C@@H]2COC(=O)c3cc(Oc4c(C(=O)O)cc(O)c(O)c4O)c(O)c(O)c3-c3c(cc(O)c(O)c3O)C(=O)O[C@H]2[C@H](OC(=O)c2cc(O)c(O)c(O)c2)[C@H]1OC(=O)c1cc(O)c(O)c(O)c1)c1cc(O)c(O)c(O)c1 [Compound 4, rugosin A]
- IC50 [1]: 3.19 ± 0.13 µM
- IC50 [2]: 12.2 ± 0.5 µM
- IC50 [3]: 3.21 ± 0.05 µM
- IC50 [4]: 3.75 ± 0.52 µM

Compound: O=C(O[C@@H]1O[C@@H]2COC(=O)c3cc(O)c(O)c(O)c3-c3c(cc(O)c(O)c3O)C(=O)O[C@H]2[C@H](OC(=O)c2cc(O)c(O)c(O)c2)[C@H]1OC(=O)c1cc(O)c(O)c(O)c1)c1cc(O)c(O)c(O)c1 [Compound 5, eugeniin]
- IC50 [1]: 4.34 ± 0.17 µM
- IC50 [2]: 26.7 ± 0.9 µM
- IC50 [3]: 4.75 ± 0.14 µM
- IC50 [4]: 3.61 ± 0.34 µM

Compound: O=C(OC1C(O)OC2COC(=O)c3cc(O)c(O)c(O)c3-c3c(cc(O)c(O)c3O)C(=O)OC2C1OC(=O)c1cc(O)c(O)c(O)c1)c1cc(O)c(O)c(O)c1 (stereo not shown) [Compound 6, tellimagrandin I]
- IC50 [1]: 4.7 ± 0.14 µM
- IC50 [2]: > 50 µM
- IC50 [3]: 4.1 ± 0.53 µM
- IC50 [4]: 3.93 ± 0.53 µM

Compound: O=C(OC[C@H]1O[C@@H](OC(=O)c2cc(O)c(O)c(O)c2)[C@H](OC(=O)c2cc(O)c(O)c(O)c2)[C@@H](OC(=O)c2cc(O)c(O)c(O)c2)[C@@H]1OC(=O)c1cc(O)c(O)c(O)c1)c1cc(O)c(O)c(O)c1 [Compound 7, 1,2,3,4,6-penta-O-galloyl-β-D-glucose]
- IC50 [1]: 3.81 ± 0.19 µM
- IC50 [2]: 4.98 ± 0.18 µM
- IC50 [3]: 4.47 ± 0.07 µM
- IC50 [4]: 3.87 ± 0.61 µM

Compound: O=C(OC[C@H]1OC(O)[C@H](OC(=O)c2cc(O)c(O)c(O)c2)[C@@H](OC(=O)c2cc(O)c(O)c(O)c2)[C@@H]1OC(=O)c1cc(O)c(O)c(O)c1)c1cc(O)c(O)c(O)c1 (stereo partly drawn) [Compound 8, 2,3,4,6-tetra-O-galloyl-D-glucose]
- IC50 [1]: 20.9 ± 0.98 µM
- IC50 [2]: 13.8 ± 1.53 µM
- IC50 [3]: 3.6 ± 0.23 µM
- IC50 [4]: 3.54 ± 0.15 µM

Compound: O=C(OC[C@H]1O[C@@H](OC(=O)c2cc(O)c(O)c(O)c2)[C@H](OC(=O)c2cc(O)c(O)c(O)c2)[C@@H](OC(=O)c2cc(O)c(O)c(O)c2)[C@@H]1O)c1cc(O)c(O)c(O)c1 [Compound 9, 1,2,3,6-tetra-O-galloyl-β-D-glucose]
- IC50 [1]: 3.94 ± 0.25 µM
- HMGR inhibition, result in words [2]: weak effect
- IC50 [2]: 41.5 ± 3.9 µM
- IC50 [3]: 4.64 ± 0.45 µM
- IC50 [4]: 5.88 ± 0.13 µM

Compound: O=C(O)[C@H]1O[C@@H](Oc2c(-c3ccc(O)c(O)c3)oc3cc(O)cc(O)c3c2=O)[C@H](O)[C@@H](O)[C@@H]1O [Compound 10, quercetin 3-glucuronic acid]
- IC50 [1]: 15.7 ± 0.15 µM
- IC50 [2]: > 50 µM
- IC50 [3]: 21.5 ± 2.03 µM
- IC50 [4]: 34.1 ± 2.98 µM

Compound: O=C(O)[C@H]1O[C@@H](Oc2c(O)cc(O)c3c(=O)c(O)c(-c4ccc(O)cc4)oc23)[C@H](O)[C@@H](O)[C@@H]1O [Compound 11, kaempferol 8-O-glucuronic acid]
- IC50 [1]: 23 ± 0.45 µM
- IC50 [2]: > 50 µM
- IC50 [3]: 17.7 ± 0.3 µM
- IC50 [4]: > 50 µM

Compound: CC[C@H](C)C(=O)O[C@H]1C[C@H](O)C=C2C=C[C@H](C)[C@H](CC[C@@H](O)C[C@@H](O)CC(=O)O)[C@H]21 [Pravastatin]
- inhibition at 5 µM [5]: 77%

Compound: O=c1c(O)c(-c2ccc(O)c(O)c2)oc2cc(O)cc(O)c12 [Quercetin, reference compound]
- IC50 [1]: 17.3 ± 1.09 µM
- IC50 ([1]; listed as quercetin): 42.1 µM
- IC50 [3]: 21.3 ± 0.34 µM
- IC50 [4]: 7.45 ± 1.33 µM

Compound: Oc1ccc(/C=C/c2cc(O)cc(O)c2)cc1 [Resveratrol, reference compound]
- IC50 [1]: 42.1 ± 1.91 µM
- IC50 [3]: > 50 µM
- IC50 [4]: 47.6 ± 6.35 µM

Compound: Cc1c(C)c2c(c(C)c1O)CCC(C)(C(=O)O)O2 (stereo not shown) [Trolox, reference compound]
- IC50 [1]: 31.3 ± 1.27 µM
- IC50 [3]: > 50 µM
- IC50 [4]: 33.2 ± 3.6 µM

Compound: O=C1O[C@H]([C@@H](O)CO)C(O)=C1O [Vitamin C, ascorbic acid, reference compound]
- IC50 [1]: 31.7 ± 0.21 µM
- IC50 [3]: > 50 µM
